Results published in PubChem BioAssay (NCI).
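These data come from cells grown in 96-well plates and exposed to compound for 48 hours at five concentrations. The concentration for full growth arrest is given as TGI.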

Assays:
Assay in all cases: NCI anticancer screen, dose series, 48 h
[1] = test system: UO-31 renal
[2] = test system: OVCAR-8 ovarian
[3] = test system: SK-MEL-28 melanoma
[4] = test system: COLO 205 colon
[5] = test system: SN12C renal
[6] = test system: BT-549 breast
[7] = test system: CCRF-CEM leukemia
[8] = test system: HS 578T breast
[9] = test system: A498 renal
[10] = test system: UACC-257 melanoma
[11] = test system: NCI-H23 lung
[12] = test system: NCI-H522 lung
[13] = test system: MDA-MB-435
[14] = test system: SK-MEL-2 melanoma
[15] = test system: CAKI-1 renal
[16] = test system: ACHN renal
[17] = test system: SW-620 colon
[18] = test system: HOP-62 NSCLC
[19] = test system: HCC-2998 colon
[20] = test system: M14 melanoma
[21] = test system: OVCAR-4 ovarian
[22] = test system: RXF 393 renal
[23] = test system: TK-10 renal
[24] = test system: SK-OV-3 ovarian
[25] = test system: K-562 leukemia
[26] = test system: SF-539 CNS
[27] = test system: KM12 colon
[28] = test system: HCT-15 colon
[29] = test system: NCI-H460 lung
[30] = test system: NCI/ADR-RES ovarian
[31] = test system: MOLT-4 leukemia
[32] = test system: HOP-92 NSCLC
[33] = test system: OVCAR-5 ovarian
[34] = test system: IGROV1 ovarian
[35] = test system: UACC-62 melanoma
[36] = test system: PC-3 prostate
[37] = test system: EKVX NSCLC
[38] = test system: A549 NSCLC
[39] = test system: SF-268 CNS
[40] = test system: U251 CNS
[41] = test system: T-47D breast
[42] = test system: SF-295 CNS
[43] = test system: OVCAR-3 ovarian
[44] = test system: DU-145 prostate
[45] = test system: SK-MEL-5 melanoma
[46] = test system: HT29 colon
[47] = test system: SNB-19 CNS
[48] = test system: NCI-H226 lung
[49] = test system: HL-60(TB) leukemia
[50] = test system: MCF7 breast
[51] = test system: MDA-MB-231 breast

Structure (SMILES): NNC(=O)c1c(SCc2ccccc2)nc2c3ccccc3ccn12
- TGI [1]: 66.5 µM
- TGI [2]: > 100 µM
- TGI [3]: > 100 µM
- TGI [4]: > 100 µM
- TGI [5]: > 100 µM
- TGI [6]: 70.2 µM
- TGI [7]: 22.1 µM
- TGI [8]: > 100 µM
- TGI [9]: 46.6 µM
- TGI [10]: > 100 µM
- TGI [11]: 52.6 µM
- TGI [12]: 37.3 µM
- TGI [13]: > 100 µM
- TGI [14]: > 100 µM
- TGI [15]: 87.9 µM
- TGI [16]: > 100 µM
- TGI [17]: > 100 µM
- TGI [18]: > 100 µM
- TGI [19]: > 100 µM
- TGI [20]: 41.2 µM
- TGI [21]: 68.6 µM
- TGI [22]: 93.4 µM
- TGI [23]: > 100 µM
- TGI [24]: > 100 µM
- TGI [25]: 57.9 µM
- TGI [26]: > 100 µM
- TGI [27]: > 100 µM
- TGI [28]: 41.2 µM
- TGI [29]: 28 µM
- TGI [30]: > 100 µM
- TGI [31]: 41.3 µM
- TGI [32]: 68.5 µM
- TGI [33]: 54.8 µM
- TGI [34]: 51.2 µM
- TGI [35]: 29.6 µM
- TGI [36]: > 100 µM
- TGI [37]: > 100 µM
- TGI [38]: 70.3 µM
- TGI [39]: > 100 µM
- TGI [40]: > 100 µM
- TGI [41]: 72.1 µM
- TGI [42]: > 100 µM
- TGI [43]: 16 µM
- TGI [44]: > 100 µM
- TGI [45]: 28.3 µM
- TGI [46]: 35.3 µM
- TGI [47]: > 100 µM
- TGI [48]: > 100 µM
- TGI [49]: 29.4 µM
- TGI [50]: > 100 µM
- TGI [51]: 87.9 µM
